Among the data in US9199940B2, “Crystalline forms and processes for the preparation of phenyl-pyrazoles useful as modulators of the 5-HT2A serotonin receptor” (Arena Pharmaceuticals, Inc., priority 2006, dated 2015) are DVS hygroscopicity values, retold here.

The data set in a line: dynamic vapor sorption (DVS) scan of crystalline forms. The class given is physicochemical. The conditions noted are these: up to 95% relative humidity. The text has this: FIG. 4 depicts a dynamic vapor sorption (DVS) scan for crystalline Form I of Compound 7 of the invention (VTI dynamic vapor sorption analyzer).
FIG. 8 depicts a dynamic vapor sorption (DVS) scan for crystalline Form I Compound 9 of the invention (VTI dynamic vapor sorption analyzer).

Molecules are shown by their SMILES.

In the case of `COc1cccc(C(=O)Nc2ccc(OCCN3CCOCC3)c(-c3ccnn3C)c2)c1` [Compound 7 Form I, 4-(2-(4-(3-methoxybenzamido)-2-(1-methyl-1H-pyrazol-5-yl)phenoxy)ethyl)morpholin-4-ium chloride], the DVS hygroscopicity entry is listed as “FIG. 4: Non-hygroscopic;”.
